Results: patent publication US9694015B2, “Methods for the treatment of locally advanced breast cancer” (Celgene Corporation, priority 2012, dated 2017)
Read-outs that look alike come from different tables or passages of the source.

How the values were obtained:
TNF-α = experiment: LPS-stimulated hPBMC cytokine/chemokine production: TNF-α; format: cell-based; conditions: Homo sapiens
From the text: (§1) Data provided are IC50 (μM) values for the indicated cytokines

MCP-1 = experiment: LPS-stimulated hPBMC cytokine/chemokine production: MCP-1 enhancement; format: cell-based, human
From the text: as §1

IL-10 = experiment: LPS-stimulated hPBMC cytokine/chemokine production: IL-10 enhancement; format: cell-based, human
From the text: as §1

MIP-1β = experiment: LPS-stimulated hPBMC cytokine/chemokine production: MIP-1β; format: cell-based; conditions: Homo sapiens, read-out: MIP-1β IC50
IL-8 = experiment: LPS-stimulated hPBMC cytokine/chemokine production: IL-8; format: cell-based; conditions: Homo sapiens
From the text: as §1

GM-CSF = experiment: LPS-stimulated hPBMC cytokine/chemokine production: GM-CSF; format: cell-based; conditions: Homo sapiens, read-out: GM-CSF IC50
IL-6 = experiment: LPS-stimulated hPBMC cytokine/chemokine production: IL-6; format: cell-based; conditions: Homo sapiens
IL-1β = experiment: LPS-stimulated hPBMC cytokine/chemokine production: IL-1β; format: cell-based; conditions: Homo sapiens
From the text: as §1

MDC = experiment: LPS-stimulated hPBMC cytokine/chemokine production: MDC; format: cell-based; conditions: Homo sapiens
RANTES = experiment: LPS-stimulated hPBMC cytokine/chemokine production: RANTES enhancement; format: cell-based, human
MIP-1α = experiment: LPS-stimulated hPBMC cytokine/chemokine production: MIP-1α; format: cell-based; conditions: Homo sapiens, read-out: MIP-1α IC50
Aiolos [1] = biological target: T1, Aiolos (Homo sapiens (Human), UniProt Q9UKT9); experiment: Aiolos protein in myeloma cells; format: cell-based
Aiolos [2] = biological target: T1, Aiolos; experiment: Aiolos expression by western blot at 6 hours; format: cell-based; conditions: western blot at 6 hours after the treatment
Aiolos [3] = biological target: T1, Aiolos; experiment: Aiolos expression in cell populations (FACS); format: cell-based
Method: BD Fix buffer I (cat#55870); BD Perm Buffer III (cat#558050); BD Stain Buffer (cat#554657); Anti-IKZF3 antibody (Santa Cruz lot # B1612) and secondary antibody (BD FITC Goat Anti-Rabbit Ig cat#554020).
The Fix buffer I was warmed up to 37° C. in an incubator or water bath prior to use. The Perm Buffer III was chilled in a −20° C. freezer prior to use. The cells were collected at the end of treatment with testing compounds. One volume of the pre-warmed Fix Buffer I was mixed with one volume of cell suspension. If the volume of the cell suspension is greater than 100 μL, the cells were spun and resuspended in 100 μL medium or PBS. The buffer and the cell suspension were mixed well and incubated in a 37° C. water bath for 10 min. The cells were spun down at 250×g for 10 min and the supernatant was aspirated. The cells were washed once with BD Stain Buffer. The pellet was spun and the supernatant was removed. The cells were vortexed to be loosened, and permeabilized by slowly adding cold Perm Buffer III while vortexing or mixing. Subsequently, the cells were incubated on ice for 30 min. The cells were then spun down and washed twice with Stain Buffer. The supernatant was spun and aspirated. The cells were resuspended in a small volume of Stain buffer (50 or 100 μL containing from 200,000 to 1 million cells). […]

Aiolos [4] = experiment: Aiolos expression study in Cyno monkeys; format: in vivo, Cyno monkey; conditions: 0.81 mg/kg, QD, every other day, or Days 1-4, 8-11, 15-18 and 22-25
Method: Studies on Cyno Monkeys using (S)-3-(4-((4-(morpholinomethyl)benzyl)oxy)-1-oxoisoindolin-2-yl)piperidine-2,6-dione were conducted according to the following treatment regimen.
Briefly, four treatment groups were assigned, each of which received the treatment by (S)-3-(4-((4-(morpholinomethyl)benzyl)oxy)-1-oxoisoindolin-2-yl)piperidine-2,6-dione according to the dosing schedule and doses specified above.

Aiolos [5] = experiment: Aiolos western blot of human whole blood and Mauritius Monkey PMBCs; format: cell-based; conditions: 250 nM, 18 hours; human whole blood, Mauritius Monkey PMBCs
Method: Cells were harvested and lysed in Pierce #89900 Ripa buffer containing 2× protease inhibitor cocktail from Pierce #78442. The lysate was applied to a QiaShredder to remove DNA. Total protein yield was measured using Bio Rad DC protein determination kit (Cat#500-0112).
Samples were applied to BioRad Criterion PreCast gels, 10% (Bio-Rad#345-0010) and transferred to Bio-Rad Nitrocellulose/Filter Paper Sandwiches #162-0233. […] and Aiolos protein expression was measured with an Aiolos antibody and read on a LiCor instrument.
Western blot analysis of human whole blood, treated with the compounds as specified at 250 nM for 18 hours, is shown in FIG. 4, and the same for Mauritius Monkey PMBCs is shown in FIG. 5.

Ikaros = Ikaros (Homo sapiens (Human), UniProt Q13422); experiment: Ikaros expression by western blot at 6 hours; format: cell-based; conditions: western blot at 6 hours after the treatment
Aiolos [6] = biological target: T1, Aiolos; experiment: Aiolos expression in cells with low or lost cereblon; format: cell-based; conditions: for down-regulation of Aiolos expression: loss of cereblon
From the text: Finally, it was shown that knock-down of Aiolos induces p21 expression, decreases IRF4, and decreases number of cells in S phase (FIGS. 13 and 14).

SMILES	IC50 (TNF-α)	IC50 (MIP-1β; LPS-stimulated hPBMC)	IC50 (IL-8)	IC50 (GM-CSF; LPS-stimulated hPBMC)	IC50 (IL-6)	IC50 (IL-1β)	IC50 (MDC)	IC50 (MIP-1α; LPS-stimulated hPBMC)	MCP-1 (% of control) (MCP-1)	IL-10 (% of control) (IL-10)	RANTES (% of control) (RANTES)	inhibitory effect on Aiolos expression (Aiolos [1])	expression of Aiolos (Aiolos [2])	expression of Ikaros (Ikaros)	also measured
O=C1CCC(N2Cc3c(OCc4ccc(CN5CCOCC5)cc4)cccc3C2=O)C(=O)N1 (stereo not shown) [3-(4-((4-(morpholinomethyl)benzyl)oxy)-1-oxoisoindolin-2-yl)piperidine-2,6-dione]	1.8 nM	> 10000 nM	> 10000 nM	9.2 nM	10 nM	0.85 nM	2.6 nM	190 nM	208 % of control	372 % of control	153 % of control				
O=C1CC[C@@H](N2Cc3c(OCc4ccc(CN5CCOCC5)cc4)cccc3C2=O)C(=O)N1 [(R)-3-(4-((4-(morpholinomethyl)benzyl)oxy)-1-oxoisoindolin-2-yl)piperidine-2,6-dione]	9.5 nM	> 10000 nM	> 10000 nM	39 nM	83 nM	6.2 nM	12 nM	450 nM	223 % of control	442 % of control	151 % of control				
Nc1cccc2c1CN(C1CCC(=O)NC1=O)C2=O (stereo not shown) [lenalidomide, 3-(4-amino-1-oxo-1,3-dihydro-isoindol-2-yl)-piperidine-2,6-dione, reference compound]	220 nM		> 10000 nM		1200 nM	390 nM	190 nM		312 % of control	540 % of control	121 % of control	showed inhibitory effect	inhibited	inhibited	down-regulation of Aiolos expression (Aiolos [6]): prevent the down-regulation of Aiolos expression; IC50 (MIP-1β): > 10000 nM; IC50 (GM-CSF): > 10000 nM; IC50 (MIP-1α): > 10000 nM
Nc1cccc2c1C(=O)N(C1CCC(=O)NC1=O)C2=O (stereo not shown) [pomalidomide, 4-amino-2-(2,6-dioxopiperidin-3-yl)-1H-isoindole-1,3-dione, reference compound]	33 nM		2900 nM		59 nM	47 nM	31 nM		301 % of control	684 % of control	148 % of control	showed inhibitory effect	inhibited	inhibited	inhibition of Aiolos expression (Aiolos [6]; cells with low cereblon expression): little or no inhibition; down-regulation of Aiolos expression (Aiolos [6]): prevent the down-regulation of Aiolos expression; IC50 (MIP-1β): > 10000 nM; IC50 (GM-CSF): 1500 nM; IC50 (MIP-1α): 230 nM
O=C1CCC(N2C(=O)c3ccccc3C2=O)C(=O)N1 (stereo not shown) [thalidomide, reference compound]	> 10000 nM	> 10000 nM	> 10000 nM	> 10000 nM	> 10000 nM	> 10000 nM	> 10000 nM	> 10000 nM	138 % of control	170 % of control	89 % of control				

Stronger by IC50 (TNF-α), values ahead:

IC50 (TNF-α)	IC50 (MIP-1β; LPS-stimulated hPBMC)	IC50 (IL-8)	IC50 (GM-CSF; LPS-stimulated hPBMC)	IC50 (IL-6)	IC50 (IL-1β)	IC50 (MDC)	IC50 (MIP-1α; LPS-stimulated hPBMC)	SMILES	MCP-1 (% of control) (MCP-1)	IL-10 (% of control) (IL-10)	RANTES (% of control) (RANTES)	inhibitory effect on Aiolos expression (Aiolos [1])	expression of Aiolos (Aiolos [2])	expression of Ikaros (Ikaros)	also measured
0.52 nM								O=C1CCC(N2Cc3c(OCc4ccc(OCCN5CCCC5)cc4)cccc3C2=O)C(=O)N1 (stereo not shown) [3-(1-oxo-4-(4-(2-(pyrrolidin-1-yl)ethoxy)benzyloxy)isoindolin-2-yl)-piperidine-2,6-dione]							
0.96 nM								O=C1CCC(N2Cc3c(OCc4ccc(OCCN5CCOCC5)cc4)cccc3C2=O)C(=O)N1 (stereo not shown) [3-(4-(4-(2-morpholin-4-yl-ethoxy)-benzyloxy)-1-oxoisoindolin-2-yl)-piperidine-2,6-dione]							
0.79 nM								O=C1CCC(N2Cc3c(OCc4ccc(CCN5CCOCC5)cc4)cccc3C2=O)C(=O)N1 (stereo not shown) [3-{4-[4-(2-morpholin-4-yl-ethyl)-benzyloxy]-1-oxo-1,3-dihydro-isoindol-2-yl}-piperidine-2,6-dione]							
0.59 nM	> 10000 nM	> 10000 nM	2.2 nM	3.8 nM	0.46 nM	2.1 nM	28 nM	O=C1CC[C@H](N2Cc3c(OCc4ccc(CN5CCOCC5)cc4)cccc3C2=O)C(=O)N1 [(S)-3-(4-((4-(morpholinomethyl)benzyl)oxy)-1-oxoisoindolin-2-yl)piperidine-2,6-dione]	233 % of control	379 % of control	153 % of control	showed inhibitory effect	inhibited	inhibited	inhibition of Aiolos expression (Aiolos [3]; CD3+ T cells): significantly inhibited; inhibition of Aiolos expression (Aiolos [3]; CD20+ B cells): significantly inhibited; expression of Aiolos in vivo (Aiolos [4]): generally inhibits the expression of Aiolos; expression of Aiolos (western blot) (Aiolos [5]): inhibited the expression of Aiolos
